From patent publication US20060069132A1, “Azolecarboxamide herbicides” (priority 2004, published 2006)

How the values were obtained:
barnyardgrass [1] = test: Test A pre-/postemergence herbicide test; type: in vivo, Echinochloa crus-galli
Outline: (§1)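 Visual injury scores on a 0–100 scale (100 = complete control) taken about ten days post-treatment in greenhouse against untreated controls; dash means no result. Treatments: preemergence soil spray and postemergence spray to runoff on one- to two-leaf plants 2 to 10 cm tall, surfactant-containing formulation.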

[2] = tested on: small flower umbrella sedge; test: Test B flooded paddy test; type: in vivo, Cyperus difformis; settings: 1000 g ai/ha, visual rating, scale 0 to 100 (0 no effect, 100 complete control), 13 to 15 days
Outline: (§2)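 Visual control ratings, 0–100 versus untreated controls, taken after 13 to 15 days in the greenhouse. Blackgrass received a postemergence spray at the 1- to 4-leaf stage (2–18 cm); ducksalad, umbrella sedge and barnyardgrass were flooded-paddy treated at 2 leaves.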

morningglory [3] = test: Test B pre-/postemergence herbicide test; type: in vivo, Ipomoea coccinea
Outline: (§3)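 Response was scored visually 13 to 15 days after treatment against untreated greenhouse controls, 0 meaning no effect and 100 complete control. Formulations (solvent mixture plus surfactant) went onto soil after planting, onto foliage of 1- to 4-leaf plants, and onto 2-leaf plants in a flooded paddy set including rice and barnyardgrass.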

large crabgrass [4] = test: Test B pre-/postemergence herbicide test; type: in vivo, Digitaria sanguinalis
Outline: as §3

velvetleaf [5] = test: Test B pre-/postemergence herbicide test; type: in vivo, Abutilon theophrasti
Outline: as §3

redroot pigweed = test: Test A pre-/postemergence herbicide test; type: in vivo, Amaranthus retroflexus
Outline: as §1

rice [6] = test: Test B pre-/postemergence herbicide test; type: in vivo, Oryza sativa; settings: preemergence
Outline: as §3

wild oat = test: Test B postemergence herbicide test; type: in vivo, Avena fatua; settings: scale 0 (no effect) to 100 (complete control)
Outline: (§4)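 Formulated test chemicals went onto postemergence plants measuring 2 to 18 cm, at one to four leaves. For the paddy assay, species had reached two leaves. Scoring took place 13–15 days later by eye, relative to untreated plants, using 0 for no effect up to 100 for full control.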

cocklebur = test: Test B pre-/postemergence herbicide test; type: in vivo, Xanthium strumarium
Outline: as §3

morningglory [7] = test: Test A pre-/postemergence herbicide test; type: in vivo, Ipomoea spp.
Outline: as §1

barnyardgrass [8] = test: Test B pre-/postemergence herbicide test; type: in vivo, Echinochloa crus-galli
Outline: as §3

rice [9] = test: Test B flooded paddy test; type: in vivo, Oryza sativa; settings: 1000 g ai/ha, visual rating, scale 0 to 100 (0 no effect, 100 complete control), 13 to 15 days
Outline: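 Postemergence plants were sprayed with formulated test chemicals at 2 to 18 cm height (1- to 4-leaf stage); paddy species were grown to the 2-leaf stage. After 13 to 15 days in a greenhouse, injury was rated visually against untreated controls on a 0–100 scale (0 = no effect, 100 = complete control).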

giant foxtail [10] = test: Test A pre-/postemergence herbicide test; type: in vivo, Setaria faberi
Outline: as §1

lambsquarters = test: Test B pre-/postemergence herbicide test; type: in vivo, Chenopodium album
Outline: as §3

corn = test: Test B pre-/postemergence herbicide test; type: in vivo, Zea mays
Outline: as §3

blackgrass = test: Test B postemergence herbicide test; type: in vivo, Alopecurus myosuroides; settings: scale 0 (no effect) to 100 (complete control)
Outline: as §2

velvetleaf [11] = test: Test A pre-/postemergence herbicide test; type: in vivo, Abutilon theophrasti
Outline: as §1

large crabgrass [12] = test: Test A pre-/postemergence herbicide test; type: in vivo, Digitaria sanguinalis
Outline: as §1

Surinam grass = test: Test B pre-/postemergence herbicide test; type: in vivo, Urochloa decumbens
Outline: as §3

wheat = test: Test B postemergence herbicide test; type: in vivo, Triticum aestivum; parameters: key to Wheat plant response rating: 0 = no effect, 100 = complete control; settings: scale 0 (no effect) to 100 (complete control)
Outline: as §4

ducksalad = test: Test B flooded paddy test; type: in vivo, Heteranthera limosa; settings: 1000 g ai/ha, visual rating, scale 0 to 100 (0 no effect, 100 complete control), 13 to 15 days
Outline: as §2

pigweed = test: Test B pre-/postemergence herbicide test; type: in vivo, Amaranthus retroflexus
Outline: as §3

barnyardgrass [13] = test: Test B flooded paddy test; type: in vivo, Echinochloa crus-galli; settings: 1000 g ai/ha, visual rating, scale 0 to 100 (0 no effect, 100 complete control), 13 to 15 days
Outline: as §2

giant foxtail [14] = test: Test B pre-/postemergence herbicide test; type: in vivo, Setaria faberi
Outline: as §3

[15] = Postemergence, 500 g ai/ha, 0 to 100 scale, 0 no effect, 100 complete control
[16] = Postemergence, 2000 g ai/ha, 0 to 100 scale, 0 no effect, 100 complete control
[17] = Preemergence, 500 g ai/ha, visual rating, 0 to 100 scale (0 no effect, 100 complete control)
[18] = Preemergence, 2000 g ai/ha, visual rating, 0 to 100 scale (0 no effect, 100 complete control)
[19] = 500 g ai/ha, visual rating 0-100, 0 no effect, 100 complete control, preemergence
[20] = Postemergence, 500 g ai/ha, visual rating after 13 to 15 days, scale 0 (no effect) to 100 (complete control)
[21] = postemergence, 125 g ai/ha, visual rating, scale 0 (no effect) to 100 (complete control)
[22] = preemergence, 125 g ai/ha, 0 to 100 scale, 0 is no effect, 100 is complete control
[23] = Postemergence, 500 g ai/ha, visual rating after 13 to 15 days
[24] = postemergence, 125 g ai/ha, visual rating

CCn1nc(C(C)(C)C)cc1C(=O)Nc1cccc(C(=O)OC(C)(C)C)c1 [Compound 98]
Barnyardgrass plant response rating (barnyardgrass [1]; [15]): 0 | Plant response rating, Barnyardgrass (barnyardgrass [1]; [16]): 0 | Barnyardgrass plant response rating (barnyardgrass [1]; [17]): 0 | Barnyardgrass plant response rating (barnyardgrass [1]; [18]): 0 | Sedge, Umbrella plant response rating [2]: 0 | Plant response rating, Morningglory (morningglory [3]; [19]): 0 | Plant response rating, Morningglory (morningglory [3]; [20]): 20 | Morningglory plant response rating (morningglory [3]; [21]): 0 | Plant response rating, Morningglory (morningglory [3]; [22]): 0 | Plant response rating, Crabgrass, Large (large crabgrass [4]; [19]): 0 | Plant response rating, Crabgrass, Large (large crabgrass [4]; [20]): 20 | Crabgrass, Large plant response rating (large crabgrass [4]; [21]): 20 | Plant response rating, Crabgrass, Large (large crabgrass [4]; [22]): 0 | Plant response rating, Velvetleaf (velvetleaf [5]; [19]): 0 | Plant response rating, Velvetleaf (velvetleaf [5]; [20]): 10 | Velvetleaf plant response rating (velvetleaf [5]; [21]): 10 | Plant response rating, Velvetleaf (velvetleaf [5]; [22]): 0 | Pigweed plant response rating (redroot pigweed; [15]): 5 | Plant response rating, Pigweed (redroot pigweed; [16]): 10 | Pigweed plant response rating (redroot pigweed; [17]): 0 | Pigweed plant response rating (redroot pigweed; [18]): 0 | Plant response rating, Rice (rice [6]; 500 g ai/ha, visual rating 0-100, 0 no effect, 100 complete control): 0 | Plant response rating, Rice (rice [6]; 125 g ai/ha, 0 to 100 scale, 0 is no effect, 100 is complete control): 0 | Plant response rating, Oat, Wild (wild oat; [23]): 10 | Oat, Wild plant response rating (wild oat; [24]): 0 | Plant response rating, Cocklebur (cocklebur; [19]): 0 | Plant response rating, Cocklebur (cocklebur; [20]): 20 | Cocklebur plant response rating (cocklebur; [21]): 0 | Plant response rating, Cocklebur (cocklebur; [22]): 0 | Morningglory plant response rating (morningglory [7]; [15]): 0 | Plant response rating, Morningglory (morningglory [7]; [16]): 0 | Morningglory plant response rating (morningglory [7]; [17]): 0 | Morningglory plant response rating (morningglory [7]; [18]): 0 | Plant response rating, Barnyardgrass (barnyardgrass [8]; [19]): 0 | Plant response rating, Barnyardgrass (barnyardgrass [8]; [20]): 10 | Barnyardgrass plant response rating (barnyardgrass [8]; [21]): 10 | Plant response rating, Barnyardgrass (barnyardgrass [8]; [22]): 0 | Rice plant response rating (rice [9]): 0 | Foxtail, Giant plant response rating (giant foxtail [10]; [15]): 0 | Plant response rating, Foxtail, Giant (giant foxtail [10]; [16]): 0 | Foxtail, Giant plant response rating (giant foxtail [10]; [17]): 0 | Foxtail, Giant plant response rating (giant foxtail [10]; [18]): 0 | Plant response rating, Lambsquarters (lambsquarters; [19]): 0 | Plant response rating, Lambsquarters (lambsquarters; [20]): 30 | Lambsquarters plant response rating (lambsquarters; [21]): 20 | Plant response rating, Lambsquarters (lambsquarters; [22]): 0 | Plant response rating, Corn (corn; [19]): 0 | Plant response rating, Corn (corn; [20]): 10 | Corn plant response rating (corn; [21]): 10 | Plant response rating, Corn (corn; [22]): 0 | Plant response rating, Blackgrass (blackgrass; [23]): 0 | Blackgrass plant response rating (blackgrass; [24]): 0 | Velvetleaf plant response rating (velvetleaf [11]; [15]): 0 | Plant response rating, Velvetleaf (velvetleaf [11]; [16]): 5 | Velvetleaf plant response rating (velvetleaf [11]; [17]): 0 | Velvetleaf plant response rating (velvetleaf [11]; [18]): 0 | Crabgrass, Large plant response rating (large crabgrass [12]; [15]): 0 | Plant response rating, Crabgrass, Large (large crabgrass [12]; [16]): 0 | Crabgrass, Large plant response rating (large crabgrass [12]; [17]): 0 | Crabgrass, Large plant response rating (large crabgrass [12]; [18]): 0 | Plant response rating, Surinam Grass (Surinam grass; [19]): 0 | Plant response rating, Surinam Grass (Surinam grass; [20]): 20 | Surinam Grass plant response rating (Surinam grass; [21]): 10 | Plant response rating, Surinam Grass (Surinam grass; [22]): 0 | Plant response rating, Wheat (wheat; [23]): 0 | Wheat plant response rating (wheat; [24]): 0 | Ducksalad plant response rating (ducksalad): 0 | Plant response rating, Pigweed (pigweed; [19]): 0 | Plant response rating, Pigweed (pigweed; [20]): 30 | Pigweed plant response rating (pigweed; [21]): 10 | Plant response rating, Pigweed (pigweed; [22]): 0 | Barnyardgrass plant response rating (barnyardgrass [13]): 0 | Plant response rating, Foxtail, Giant (giant foxtail [14]; [19]): 0 | Plant response rating, Foxtail, Giant (giant foxtail [14]; [20]): 10 | Foxtail, Giant plant response rating (giant foxtail [14]; [21]): 10 | Plant response rating, Foxtail, Giant (giant foxtail [14]; [22]): 0
